According to patent US20060135432A1, “Agonists and antagonists of conadotropin-releasing hormone-2, and use thereof” (priority 2002, published 2006):
Where a SMILES comes first, the peptide text is derived from it. [ ]: non-standard residue; d: D form. dPhe(4-Cl) = N[C@H](Cc1ccc(Cl)cc1)C(=O)O; d2Nal = N[C@H](Cc1ccc2ccccc2c1)C(=O)O; dCit = NC(=O)NCCC[C@@H](N)C(=O)O; d3Pal = N[C@H](Cc1cccnc1)C(=O)O

How the values were obtained:
Assay type in all cases: cell-based
[1] = test system: Primate GnRH-2 receptor; test: Inhibition of GnRH-2-induced c-fos-luc luciferase activity in cells expressing Primate GnRH-2 receptor; conditions: treated at the same time as GnRH-2
Protocol: Complimentary DNA (cDNA) for a Primate GnRH-2 receptor was obtained from a CV-1 cell genome. […] Plasmids having Primate GnRH-2 receptors where transfected into CV-1 cells. To assay the activity of the receptor, c-fos-luc where a luciferase gene is fused with a c-fos promoter was co-transfected as a probe gene. After 48 hours from transfection, the cells were treated with GnRH-2 agonists and then the activity of luciferase was assayed (Seong et al., Endocrinology vol 144 2003, 454-466).
In the same manner as in 2-3 above, Primate GnRH-2 receptors were co-transfected along with c-fos-luc reporter genes, and after 48 hours, GnRH-2 and GnRH-2 antagonists were treated thereinto at the same time and then the effect of GnRH-2 antagonists was observed.

[2] = biological target: T1, rat GnRHR (Rattus norvegicus, UniProt P30969); test: Inhibition of GnRH-1-induced IP production in GH3 cells expressing rat GnRHR
T1 construct: expressed in transfected cells; host or cells: GH3 cells, retroviral infection
T1 sequence (P30969 1-327): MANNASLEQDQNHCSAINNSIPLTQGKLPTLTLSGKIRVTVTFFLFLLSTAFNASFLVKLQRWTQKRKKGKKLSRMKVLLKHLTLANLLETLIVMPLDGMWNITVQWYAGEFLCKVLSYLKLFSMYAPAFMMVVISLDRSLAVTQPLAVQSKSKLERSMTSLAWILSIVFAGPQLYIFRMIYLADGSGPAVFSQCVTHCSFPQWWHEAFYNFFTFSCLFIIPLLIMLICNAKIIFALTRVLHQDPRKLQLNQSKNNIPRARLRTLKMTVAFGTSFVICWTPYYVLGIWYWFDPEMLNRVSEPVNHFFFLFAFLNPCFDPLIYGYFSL
Protocol: GH3 cell lines were obtained from the Cell Line Bank at the Cancer Research Center, Seoul National University College of Medicine, located in Seoul, Republic of Korea. The GH3 cell lines were infected with retroviruses comprising genes encoding bfGnRHR-1, bfGnRHR-2, and bfGnRHR-3 which are bullfrog GnRH receptors, and rat GnRHR, and cell lines expressing each of these receptors were obtained. The GH3 cells expressing bfGnRHR-1, bfGnRHR-2, bfGnRHR-3, and rat GnRHR were cultured on 12-well plates. After 24 hours, the cells were cultured again for 24 hours in a media containing no inositol, to which H^3-myoinositol was added. The resultant cells were washed with buffer A (140 mM NaCl, 20 mM HEPES, 4 mM KCl, 8 mM D-Glucose, 1 mM MgCl2, 1 mM CaCl2, 1 mg/ml BSA) and then cultured in buffer A containing 10 mM LiCl at 37°C. for 30 minutes. Thereafter, they were treated with GnRH having a suitable concentration, cultured at 37° C. for another 30 minutes, and then the media was eliminated. The cells were treated with 10 mM of ice-cold formic acid to terminate the reaction, and the cell extracts were mixed with Dowex anionic exchange resins. These resins were washed with distilled water, IP was extracted with 1 M ammonium formate/0.1 M formic acid, and cpm (count per minute) was determined.
However, Trptorelix-1 could reduce the production of IP induced by 1 nM GnRH-2, in a concentration-dependent manner (FIG. 6a to FIG. 6c).

[3] = test system: bullfrog GnRH receptors; test: Antagonist effect on IP production in GH3 cells expressing bullfrog GnRH receptors (bfGnRHR-2 and bfGnRHR-3 together); conditions: GH3 cells expressing bfGnRHR-2 and bfGnRHR-3, no GnRH-2
Excerpt: In summary, it is concluded that Trptorelix is a very specific antagonist for GnRH-2. GH3 cell lines were obtained from the Cell Line Bank at the Cancer Research Center, Seoul National University College of Medicine, located in Seoul, Republic of Korea. The GH3 cell lines were infected with retroviruses comprising genes encoding […]-2, and bfGnRHR-3 which are bullfrog GnRH receptors, and rat GnRHR, and cell lines expressing each of these receptors were obtained. The GH3 cells expressing […]-3, and rat GnRHR were cultured on 12-well plates. After 24 hours, the cells were cultured again for 24 hours in a media containing no inositol, to which H^3-myoinositol was added. The resultant cells were washed with buffer A (140 mM NaCl, 20 mM HEPES, 4 mM KCl, 8 mM D-Glucose, 1 mM MgCl2, 1 mM CaCl2, 1 mg/ml BSA) and then cultured in buffer A containing 10 mM LiCl at 37°C. for 30 minutes. Thereafter, they were treated with GnRH having a suitable concentration, cultured at 37° C. for another 30 minutes, and then the media was eliminated. The cells were treated with 10 mM of ice-cold formic acid to terminate the reaction, and the cell extracts were mixed with Dowex anionic exchange resins. These resins were washed with distilled water, IP was extracted with 1 M ammonium formate/0.1 M formic acid, and cpm (count per minute) was determined.

- IC50 [2]: 0.537 nM
- fold lower effect than Cetrorelix ([2]; rat GnRH receptors): ~60 fold
SMILES: CC(=O)N[C@H](Cc1ccc2ccccc2c1)C(=O)N[C@H](Cc1ccc(Cl)cc1)C(=O)N[C@H](Cc1cccnc1)C(=O)N[C@@H](CO)C(=O)N[C@@H](Cc1ccc(O)cc1)C(=O)N[C@H](CCCNC(N)=O)C(=O)N[C@@H](Cc1c[nH]c2ccccc12)C(=O)N[C@@H](Cc1ccc(O)cc1)C(=O)N1CCC[C@H]1C(=O)N[C@H](C)C(N)=O [Trptorelix-1, Ac-D2Nal-(4Cl)D-Phe-D-3Pal-Ser-Tyr-D-Cit-Trp-Tyr-Pro-DAlaNH2] (Ac-[d2Nal][dPhe(4-Cl)][d3Pal]SY[dCit]WYP[dA]-NH2)
- effect on luciferase activity induced by GnRH-2 [1]: reduced in a concentration-dependent manner
- IP production by the antagonist alone [3]: production of IP was not observed
